Laboratory results published in patent publication US12439917B2, “Method for controlling phakopsora pachyrhizi having resistance against QoI fungicide” (SUMITOMO CHEMICAL COMPANY, LIMITED, priority 2020, dated 2025).

Tests used:
[1] = tested on: soybean rust fungus (Phakopsora pachyrhizi) having an amino acid substitution of F129L on mitochondrial cytochrome b protein; assay: Comparative Test Example 1: soybean leaf disk test versus commercial QoI fungicides; type: in vivo; conditions: method of Test Example 1
Procedure: A soybean leaf (cv; Kurosengoku) was punched out to 1 cm diameter to prepare a leaf disk. Each 1 mL of 1.2% agar medium was dispensed in 24 well microplate. A piece of the leaf disk was placed on each well. To a mixture of 0.5 μL of Sorpol (registered trademark) 1200KX, 4.5 μL of DMSO, and 5 μL of xylene was added 20 μL of a solution containing 10,000 ppm of the test compound in DMSO. The resulting mixture was diluted with ion exchange water to prepare a spray solution containing a predetermined concentration of the test compound. The spray solution was sprayed in 10 μL per one leaf disk. After 1 day, an aqueous suspension of spores of soybean rust fungus (Phakopsora pachyrhizi) having an amino acid substitution of F129L on mitochondrial cytochrome b protein (1.0×10^5/mL) was inoculated onto the leaf disks. After the inoculation, the microplate was placed in a growth chamber (light on for 6 hours, light off for 18 hours, 23° C. temperature, 60% humidity). After 1 day, the leaf disks were air-dried to disappear water droplets on the surface of the leaf disk, and the microplate was placed again in the growth chamber for 10 to 14 days. Thereafter, a lesion area of soybean rust disease was assessed. […] Here the untreated means that the spray solution containing the test compound was not sprayed onto the leaf disk.
The test was conducted by using as a test compound the compound 1, 4 or 9 of the present invention, the present compound 7, 8, 15, 18, 23, 31 or 37, pyribencarb, azoxystrobin, dimoxystrobin, metominostrobin, Fluoxastrobin, or Kresoxim-methyl at 50 ppm according to a method described in the Test Example 1. The results are indicated in [Table A] and [Table B].

[2] = tested on: soybean rust fungus strain with single amino acid substitution of F129L in the cytochrome b gene; conditions: F129L QoI-resistant soybean rust fungi; background art; cited from earlier work

Row | Molecule | Lesion area (%) at 50 ppm [1] [%] | efficacy against the resistant fungi [2]
1 | Metominostrobin | 100 | reduced to the level of practical problems
2 | CO/C=C(\Oc1cc(C2OCCCO2)ccc1C)C(=O)OC [Compound 4 of the present invention] | 10 | 
3 | CO/C=C(/C(=O)OC)N(C)c1cccc(Oc2ccccc2C)c1 [Present compound 7] | 10 | 
4 | CO/C=C(\Oc1cc(Cc2ccccc2)ccc1C)C(=O)OC [Present compound 18] | 0 | 
5 | CO/C=C(\Oc1cc(/N=C/N(C)c2ccccc2)ccc1C)C(=O)OC [Compound 9 of the present invention] | 10 | 
6 | CO/C=C(\Oc1cc(Oc2ccccc2)ccc1C)C(=O)OC [Present compound 15] | 0 | 
7 | CO/C=C(/C(=O)OC)c1ccccc1Oc1cc(Oc2ccccc2C#N)ncn1 [Azoxystrobin] | 100 | reduced to the level of practical problems
8 | CO/C=C(\Oc1cc(C2CC2)ccc1C)C(=O)OC [Compound 1 of the present invention] | 0 | 
9 | CO/N=C(/C(=O)OC)c1ccccc1COc1ccccc1C [Kresoxim-methyl] | 100 | reduced to the level of practical problems
10 | COC(=O)NCc1cc(/C(C)=N/OCc2cccc(C)n2)ccc1Cl [Pyribencarb] | 100 | reduced to the level of practical problems
11 | CO/N=C(/C1=NOCCO1)c1ccccc1Oc1ncnc(Oc2ccccc2Cl)c1F [Fluoxastrobin] | 100 | reduced to the level of practical problems
12 | CO/C=C(\Oc1cccc(C(=O)c2ccccc2)c1)C(=O)OC [Present compound 8] | 10 | 
13 | CNC(=O)/C(=N/OC)c1ccccc1COc1cc(C)ccc1C [Dimoxystrobin] | 100 | reduced to the level of practical problems
